Values quoted from earlier work as cited in patent US8623868B2, “Processes of making and using pharmaceutical formulations of antineoplastic agents” (Merck Sharp & Dohme Corp., priority 2002, dated 2014).

Columns and labels:
advanced melanoma [1] = conditions: patients having advanced melanoma; Newlands et al., Br J Cancer 1992
advanced melanoma [2] = conditions: patients with advanced melanoma; Journal of Clinical Oncology 13(4) 1995

water solubility: water-insoluble
SMILES: Cn1nnc2c(C(N)=O)ncn2c1=O [Temozolomide]
clinical responses achieved, % of patients (advanced melanoma [1]): 17%
clinical response achieved, % of patients (advanced melanoma [2]): 21%
